This experiment concerns the target Human recombinant HDAC4 (Homo sapiens (Human), UniProt P56524). As to the kind of experiment: Earlier version of HDAC4 assay. The class given is biochemical. As to conditions: 10 μM substrate, test concentrations 0.003 μM to 100 μM. On the procedure: Description of Earlier Version of HDAC4 Assay
Human recombinant HDAC4 was expressed in full length form (aa 2-1084) in Sf9 insect cells (obtained from ATCC) using baculovirus generated with Bac-to-Bac system (Invitrogen). Test compounds were serially diluted to reach final test concentrations from 0.003 μM to 100 μM. HDAC4 and test compounds were incubated in 25 mM Tris buffer pH 8.0 containing 137 mM NaCl, 2.7 mM KCl, 1 mM MgCl2 and 0.05% (w/v) bovine serum albumine for 2 hours at room temperature in presence of 10 μM of acetyl-Gly-Ala-Lys(ε-trifluoroacetyl)-AMC (AMC=7-amino-4-methyl coumarin) in a final volume of 200 μl. Control wells with HDAC4 only (positive control) and without HDAC4 (negative control) were included on the microplate. Bovine trypsin (10 μl of a 0.4 mg/ml solution) was added and the plate incubated for additional 15 minutes at room temperature. The plate was placed in a fluorescence microplate reader, and read at an excitation wavelength of 360 nm and an emission wavelength of 450 nm with a cut-off filter of 435 nm. Fluorescence values for all wells containing HDAC4 (positive control and wells with test compound) were corrected by subtracting negative control fluorescence values, and IC50 values were calculated by fitting the dose-response curves to a 4-parameter logistic function.

Sequence of Human recombinant HDAC4 (P56524 2-1084): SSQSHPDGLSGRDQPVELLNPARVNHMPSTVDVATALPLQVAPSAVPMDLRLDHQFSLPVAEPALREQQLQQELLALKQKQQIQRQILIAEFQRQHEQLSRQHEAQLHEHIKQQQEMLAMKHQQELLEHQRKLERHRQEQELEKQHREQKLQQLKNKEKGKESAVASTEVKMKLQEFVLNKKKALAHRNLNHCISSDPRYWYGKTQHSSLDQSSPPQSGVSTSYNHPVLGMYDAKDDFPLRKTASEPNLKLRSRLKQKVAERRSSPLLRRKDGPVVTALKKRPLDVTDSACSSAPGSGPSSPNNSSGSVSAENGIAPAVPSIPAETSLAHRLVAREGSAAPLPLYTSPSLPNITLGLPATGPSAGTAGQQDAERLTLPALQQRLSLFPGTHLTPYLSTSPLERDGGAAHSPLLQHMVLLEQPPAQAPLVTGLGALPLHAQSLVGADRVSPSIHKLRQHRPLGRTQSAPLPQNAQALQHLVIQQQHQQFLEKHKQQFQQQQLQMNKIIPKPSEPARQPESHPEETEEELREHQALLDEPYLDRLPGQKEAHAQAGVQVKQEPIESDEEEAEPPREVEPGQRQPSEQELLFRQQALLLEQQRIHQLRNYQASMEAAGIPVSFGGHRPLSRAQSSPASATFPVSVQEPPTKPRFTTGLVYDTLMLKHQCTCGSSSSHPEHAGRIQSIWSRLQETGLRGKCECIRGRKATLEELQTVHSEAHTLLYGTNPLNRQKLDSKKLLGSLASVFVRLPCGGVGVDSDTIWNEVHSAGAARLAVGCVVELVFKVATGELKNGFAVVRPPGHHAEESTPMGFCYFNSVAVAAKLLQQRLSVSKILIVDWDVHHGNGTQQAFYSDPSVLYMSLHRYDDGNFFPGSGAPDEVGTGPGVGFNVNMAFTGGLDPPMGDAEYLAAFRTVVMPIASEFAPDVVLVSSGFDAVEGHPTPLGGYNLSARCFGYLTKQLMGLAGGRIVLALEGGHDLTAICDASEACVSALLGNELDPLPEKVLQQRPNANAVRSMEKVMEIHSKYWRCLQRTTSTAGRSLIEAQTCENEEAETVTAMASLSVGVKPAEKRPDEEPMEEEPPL

What is called IC50 is the midpoint of a concentration-inhibition curve. `C[C@@H](NC(=O)c1cnc(-c2noc(C(F)(F)F)n2)nc1)c1ccccc1` [(R)—N-(1-phenylethyl)-2-(5-(trifluoromethyl)-1,2,4-oxadiazol-3-yl)pyrimidine-5-carboxamide]: the IC50 was over 30 µM.

Consider `O=C(NCc1ccncc1)c1cnc(-c2noc(C(F)(F)F)n2)nc1` [N-(pyridin-4-ylmethyl)-2-(5-(trifluoromethyl)-1,2,4-oxadiazol-3-yl)pyrimidine-5-carboxamide], for which the IC50 was over 30 µM.

For the origin of these results see US9670193B2 (Novartis AG, priority 2011, dated 2017).
